Like-named read-outs stand apart in the source and are kept apart here.
Legend:
[1] = test system: oncogenic K-Ras4B activation of MAP kinase; assay: Oncogenic K-Ras4B activation of MAP kinase, immunoblot; assay type: cell-based
Description: (§1) Equal amounts of protein were separated on a 15% SDS-PAGE, transferred to nitrocellulose, and immunoblotted using an anti-MAP kinase antibody (erk2, monoclonal, UB1, Lake Placid, N.Y.). Antibody reactions were visualized using peroxidase-conjugated donkey anti-mouse IgG (Jackson ImmunoResearch Laboratories Inc., West Grove, Pa.) and an enhanced chemiluminescence detection system (ECL, Amersham Corp.)

H-Ras processing = assay: Ras processing assay in H-RasF cells (NIH 3T3 transformed with oncogenic H-Ras-CVLS), immunoblot; assay type: cell-based; conditions: for IC50: Mus musculus, NIH3T3, whole cells
Procedure: (§2) H-RasF cells (45) were seeded on day 0 in 100 mm Dishes (costar) in Dulbecco's modified Eagles medium (GIBCO) and allowed to grow to 40-60% confluency. […] On day 3, cells were washed one time with ice cold PBS and were collected and lysed by incubation for 30-60 min on ice in lysis buffer (41). Lysates were cleared (14,000 rpm, 4° C., 15 min) and supernatants collected. Equal amounts of lysate were separated on a 12.5% SDS-PAGE, transfered to nitrocellulose, and a western blot performed using a anti-Ras antibody (Y13-238, ATCC) or anti-Rap1A antibody (Santa Cruz Biotechnology, Santa Cruz, Calif.). Antibody reactions were visualized using peroxidase-conjugated goat anti-rat IgG for Y13-238 and peroxidase-conjugated goat anti-rabbit IgG for Rap1A and an enhanced chemiluminescence detection system (ECL; Amersham Corp.)
(§3) H-Ras cells (45) and K-Ras4B Cells (32) were kind gifts from Dr. Channing Der and Dr. Adrienne Cox (University of North Carolina, Chapel Hill). Means of obtaining these cell lines will be easily recognized by the skilled practitioner. Cells were seeded on day 0 in 100 mm dishes in Dulbecco's modified Eagles medium supplemented with 10% calf serum and 1% penicillin-streptomycin. […] On day 3, cells were washed and lysed in lysis buffer containing 50 mM HEPES, pH 7.5, 10 mM NaCl, 1% TX-100, 10% glycerol, 5 mM MgCl2, 1 mM EGTA, 25 μg/ml leupeptin, 2 mM PMSF, 2 mM Na3 VO4, 1 mg/ml soybean trypsin inhibitor, 10 μg/ml aprotinin, 6.4 mg/ml Sigma-104® phosphatase substrate. Lysates were cleared (14,000 rpm, 4° C., 15 min) and equal amounts of protein were separated on a 12.5% SDS-PAGE, transferred to nitrocellulose, and immunoblotted using an anti-Ras antibody (Y13-259, ATCC) or an anti-RapIA antibody (SC-65, Santa Cruz Biotechnology, Santa Cruz, Calif.). Antibody reactions were visualized using either peroxidase-conjugated goat anti-rat 1 gG (for Y13-259), or peroxidase-conjugated goat anti-rabbit 1 gG (for Rap1A) and an enhanced chemiluminescence detection (ECL, Amersham Corp.), as described previously (41).

K-Ras4B processing = K-Ras4B processing assay in NIH 3T3 cells overexpressing oncogenic K-Ras4B; assay type: cell-based; conditions: for IC50: Mus musculus, NIH3T3, whole cells
Description: H-Ras cells (45) and K-Ras4B Cells (32) were kind gifts from Dr. Channing Der and Dr. Adrienne Cox (University of North Carolina, Chapel Hill). Means of obtaining these cell lines will be easily recognized by the skilled practitioner.

[2] = test system: oncogenic H-Ras activation of MAPK; assay: Oncogenic H-Ras activation of MAP kinase, immunoblot; assay type: cell-based; conditions: 0-30 μM, FIG. 20
Description: as §1

Rap1A processing [3] = assay: Rap1A processing assay in NIH 3T3 cells overexpressing oncogenic H-Ras, immunoblot; assay type: cell-based; conditions: whole cells; for IC50: Mus musculus, NIH3T3
Procedure: as §2, §3

[4] = test system: K-Ras4B transformed NIH-3T3 cells; assay: Nude mouse xenograft, K-Ras4B transformed NIH-3T3 cells; assay type: in vivo, nude mice; conditions: for tumor size: two weeks
Procedure: In contrast, tumors from animals treated once daily with GGTI-286 (25 mg/kg or 50 mg/kg) grew to a size of 1600 mm^3 or 900 mm^3, respectively (FIG. 22).

[5] = Description: (§4) In this model, tumors from two human lung carcinoma cell lines are implanted subcutaneously. One of these (Calu-1) harbors a K-Ras oncogenic mutation and has a deletion of the tumor suppressor gene p53. The other human lung carcinoma ([…]) has no Ras mutations.
[6] = test system: Raf-transformed NIH 3T3 cells; conditions: 50 mg/kg once daily
[7] = test system: NCI-H810 human lung carcinoma; conditions: 50 mg/kg once daily, 14 days of treatment
Description: (§5) Calu-1 (Panel A) and NCI-H810 cells (Panel B) were purchased from ATCC and grown in McCoy's 5A medium in 10% FBS (Fetal Bovine Serum) and RPMI 1640 in 10% FBS, respectively. The cells were harvested, resuspended in PBS and injected s.c. into the right and left flank of 8 week old female nude mice (10^7 cells/flank). Nude mice (Harlan Sprague Dawley, Indianapolis, Ind.) were maintained in accordance with the Institutional Animal Care and Use Committee (IACUC) procedures and guidelines. On day 32 after s.c. implantation of tumors, animals were dosed i.p. with 0.2 ml once daily for 36 days. […] The tumor volumes were determined by measuring the length (l) and the width (w) and calculating the volume (V=(l)×(w)^2 /2). Data are presented as the average volume of eight tumors in each group for each cell line. Statistical significance between control and treated groups were evaluated by using student t test (*P<0.05).

[8] = test system: Calu-1 human lung carcinoma
Description: as §5, §4

[9] = test system: H-RasF transformed NIH 3T3 cells
Procedure: (§6) A. Antitumor efficacy was carried out as described in FIG. 3 except that animals were randomly assigned to four groups each of 4 mice each (2 tumors per mouse). […] B. Ras processing was carried out 5 hours after the last treatement on day 17. Tumors were extracted from the animals, tissumized, and lysed in lysis buffer as described in FIG. 1. Lysates (25 μg) were electrophoresed on a 12.5% SDS-PAGE and immunoblotted with anti-Ras antibody Y13-238 as described previously. The blots were then reprobed with anti-Rap1A antibody (Santa Cruze Biotechnologies, Santa Cruz, Calif.).
(§7) The tumor sizes at the end of 17 days were 2490 mm^3 for saline, 1793 mm^3 for 10 mg/kg, 1226 mm^3 for 50 mg/kg and 624 mm^3 for 100 mg/kg treated animals. […] Tumors from control animals contained only fully processed Ras which migrates faster in SDS-PAGE gels (FIG. 11B). […] Thus, the extent of tumor growth inhibition correlated with the extent of inhibition of Ras processing.

Rap1A processing [10] = conditions: 100 mg/kg
Procedure: as §6, §7

Ras processing = conditions: 10 to 100 mg/kg, 5 hrs after last injection
Procedure: as §6, §7

GGTase I = molecular target: T1, GGTase I (Homo sapiens, UniProt P53609); assay: GGTase I activity assay: transfer of [3H]geranylgeranyl to recombinant H-Ras-CVLL, Daudi 60,000xg supernatant; assay type: biochemical
T1 construct: FTase and GGTase I activities from 60,000×g supernatants of human Burkitt lymphoma (Daudi) cells; endogenous in cells; host or cells: human Burkitt lymphoma (Daudi) cells, 60,000xg supernatant (partially purified)
T1 sequence (P53609 whole entry): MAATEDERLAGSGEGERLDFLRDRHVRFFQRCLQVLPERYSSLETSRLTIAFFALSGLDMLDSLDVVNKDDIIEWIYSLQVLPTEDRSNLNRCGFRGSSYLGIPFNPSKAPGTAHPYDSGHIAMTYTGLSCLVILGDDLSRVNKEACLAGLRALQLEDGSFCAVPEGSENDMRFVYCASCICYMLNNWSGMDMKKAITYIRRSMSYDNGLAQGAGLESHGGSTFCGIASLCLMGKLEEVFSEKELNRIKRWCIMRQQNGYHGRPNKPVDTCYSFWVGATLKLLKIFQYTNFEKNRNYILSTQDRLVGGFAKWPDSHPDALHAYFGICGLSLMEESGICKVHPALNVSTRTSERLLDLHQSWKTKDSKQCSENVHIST
Procedure: FTase and GGTase I activities from 60,000×g supernatants of human Burkitt lymphoma (Daudi) cells (ATCC, Rockville, Md., USA) were assayed as described previously for FTase (41). Briefly, 100 μg of the supernatant was incubated in 50 mM Tris, pH 7.5, 50 μM ZnCl2, 20 mM KCl and 1 mM dithiothreitol (DTT). The reaction was incubated at […] for 30 min with recombinant Ha-Ras-CVLS (11 μM) and [^3 H]FPP (625 nM; 16.3 Ci/mmol) for FTase, and recombinant Ha-Ras-CVLL (5 μM) and [^3 H]geranylgeranylpyrophosphate (525 nM; 19.0 Ci/mmol) for GGTase I. The peptidomimetics were mixed with FTase and GGTase before adding to the reaction mixture.
Human Burkitt lymphoma (Daudi) cells (ATCC, Rockville, Md.) were grown in suspension in RPMI 1640 medium containing 10% fetal bovine serum (FBS) and 1% Pen-Strep in a humidified 10% CO2 incubator at 37° C. The cells were harvested and sonicated in 50 mM Tris, pH 7.5, 1 mM EDTA, 1 mM EGTA, 25 μg/ml leupeptin, 1 mM phenylmethylsulfonyl fluoride. Homogenates were then spun at 12,000×g and the resulting supernatant further spun at 60,000×g. The supernatant was assayed for both FTase and GGTase I. Briefly, 100 μg of the supernatants was incubated in 50 mM Tris, pH 7.5, 50 μM ZnCl2, 20 mM KCl, 3 mM MgCl2 and 1 mM DTT. For FTase assays, the reaction was incubated at 37° C. for 30 minutes with recombinant H-Ras-CVLS (11 μM) and [^3 H] FPP (625 nM; 16.3 Ci/mmol). For GGTase assays, the reaction was also incubated for 30 minutes at 37° C. but with recombinant H-Ras-CVLL (5 μM) and [^3 H] GGPP (525 nM; 19.0 Ci/mmol). The reaction was stopped and passed through glass fiber filters to separate free and incorporated label. For inhibition studies, the peptidomimetics were premixed with FTase or GGTase I prior to adding the remainder of the reaction mixture. Recombinant H-Ras-CVLS was prepared as described previously (26) from bacteria (31). Recombinant H-Ras-CVLL was prepared from bacteria (32).
FTase and GGTase I activities from 60,000×g supernatants of human Burkitt lymphoma (Daudi) cells (ATCC, Rockville, Md.) were assayed exactly as described previously for FTase (41). Inhibition studies were performed by determining the ability of Ras CAAX peptidomimetics to inhibit the transfer of [^3 H]-farnesyl and [^3 H]-geranylgeranyl from [^3 H]FPP and [^3 H]GGPP to H-ras-CVLS and H-Ras-CVLL, respectively (41).

## COC(=O)[C@H](CC(C)C)NC(=O)c1ccc(NC[C@@H](N)CS)cc1-c1ccccc1.Cl [GGTI-286, 4-[2(R)-amino-3-mercaptopropyl]amino-2-phenylbenzoyl-(S)-leucine methyl ester hydrochloride]
[1]
  concentration of complete block of K-Ras4B MAP kinase activation: 10 µM
[1]; read-out: IC50, inhibition of K-Ras4B MAP kinase activation
  IC50: 1 µM
H-Ras processing; FIG. 18
  concentration needed for accumulation of unprocessed H-Ras: ≥ 30 µM
H-Ras processing; Table 5, read-out: In Vivo Processing IC50 H-Ras
  IC50: > 30 µM
H-Ras processing; read-out: H-Ras processing IC50
  IC50: > 30 µM
K-Ras4B processing
  concentrations inhibiting K-Ras4B processing that had no effect on processing of farnesylated H-Ras: 1 to 3 µM
K-Ras4B processing; Table 5, read-out: In Vivo Processing IC50 K-Ras
  IC50: 2 µM
K-Ras4B processing; read-out: K-Ras4B processing IC50
  IC50: 2 µM
[2]
  inhibition of oncogenic H-Ras activation of MAP kinase: inhibited only slightly
Rap1A processing [3]; Table 5, read-out: In Vivo Processing IC50 Rap1A
  IC50: 2 µM
Rap1A processing [3]; read-out: Rap1A processing IC50
  IC50: 2 µM
Rap1A processing [3]
  selectivity for inhibition of geranylgeranylation over farnesylation processing: more than 15 fold
[4]; 25 mg/kg once daily
  inhibition of tumor growth: 50%
  tumor size: 1600 mm^3
[4]; 50 mg/kg once daily
  inhibition of tumor growth: 70%
  tumor size: 900 mm^3

## CSCC[C@H](NC(=O)c1ccc(NC[C@@H](N)CS)cc1-c1ccccc1)C(=O)O [FTI-276, 4-N-[2(R)-Amino-3-mercaptopropyl]amino-2-phenylbenzoyl methionine]
[5]; 50 mg/kg once daily for 36 days
  weight loss: no weight loss was observed
[5]; dose escalated to 180 mg/kg once daily
  toxicity: lack of toxicity
[6]
  growth of Raf-transformed NIH 3T3 cells: had no effect
[7]
  average tumor size: 815 mm^3
[8]; 50 mg/kg i.p. once daily, 64 days from tumor implantation
  average tumor size: 113 mm^3
[8]; 50 mg/kg once daily
  tumor growth of Calu-1: essentially blocked tumor growth
[9]; 10 mg/kg
  tumor size at the end of 17 days: 1793 mm^3
[9]; 50 mg/kg
  tumor size at the end of 17 days: 1226 mm^3
[9]; 50 mg/kg once daily
  tumor growth of H-RasF transformed NIH 3T3 cells: inhibited tumor growth
[9]; 100 mg/kg
  tumor size at the end of 17 days: 624 mm^3
Rap1A processing [10]
  Rap1A processing in tumors: did not inhibit Rap1A processing
Ras processing
  Ras processing in tumors: progressive accumulation of unprocessed Ras
GGTase I; Table 1, read-out: GGTase I IC50
  IC50: 0.057 µM
GGTase I; Table 5, read-out: In Vitro IC50 GGTase I
  IC50: 0.05 µM
GGTase I; read-out: GGTase I IC50
  IC50: 0.05 µM

— patent US5965539A, “Inhibitors of prenyl transferases” (Univeristy of Pittsburgh, priority 1996, dated 1999)
